Results on six compounds are retold here after patent publication US9873904B2, “Detection of acid-producing bacteria” (3M INNOVATIVE PROPERTIES COMPANY, priority 2009, dated 2018).

The structures appear in SMILES notation. Where a name gives a salt, the structure may show the parent alone. Read-outs that look alike come from different tables or passages of the source.

Test [1] concerns L. lactis subspecies lactis. The class given is cell-based, Lactococcus lactis subspecies lactis. Particulars: 30 C. From the text:
(§1) DIFCO MRS broth was obtained from BD-Diagnostic Systems (Sparks, Md.).
(§2) Four strains of lactic acid-producing bacteria were isolated from processed meats. Two of the cultures were identified as Leuconostoc mesenteroides and Weissella viridescens, Lactococcus lactis subspecies lactis and Streptococcus oralis.
(§3) Bromcresol purple (BCP) pH indicators was obtained from Eastman Kodak (Rochester, N.Y.). Chlorophenol red (CPR) (CAS NO. 4430-20-0) was obtained from Sigma-Aldrich (St. Louis, Mo.). The pH indicators were individually added to MRS broth to obtainfinal concentrations of BCP or CPR of 0.5 mM. After dissolving the pH indicator, the solutions were filter-sterilized.
(§4) Bacterial cultures were prepared by inoculating pure cultures into tryptic soy broth or MRS broth. The inoculated broth was incubated overnight at 25° C. The overnight cultures were diluted in the MRS broth (containing bromcresol purple) to obtain a suspension of approximately 10-100 colony-forming units (CFU) per milliliter. […] Inoculated plates were incubated at temperatures at 25°, 30° and 32° C., respectively. The plates were visually inspected for signs of bacterial growth.
(§5) A concentrated solution of sterile chlorophenol red was added to the MRS diluent as described in Example 2. A concentrated solution of sterile dipotassium phosphate (pH 7.0+/−0.2) was added to the MRS diluent to provide an additional 28 mM phosphate buffer in the diluent. Lactic acid bacterial cultures were prepared and diluted into the MRS/chlorophenol red solution as described in Example 1 with the exception that S. oralis was not tested in this experiment. […] The plates were incubated at 30° C. and the plates were visually inspected for signs of bacterial growth.
(§6) A concentrated solution of sterile chlorophenol red was added to the MRS diluent as described in Example 2. A concentrated solution of sterile dipotassium phosphate (pH 7.0+/−0.2) was added to the MRS diluent to provide and additional 28 mM phosphate buffer in the diluent. Lactic acid bacterial cultures were prepared and diluted into the MRS/chlorophenol red solution as described in Example 1 with the exception that S. oralis was not tested in this experiment. […] The plates were incubated at 30° C. and the plates were visually inspected for signs of bacterial growth.

The next test has as its system S. oralis. The class given is cell-based, Streptococcus oralis. Particulars: Example 1; indicator 0.02 g/l or 0.04 g/l; buffer addition None; 25 C, 30 C; 40-72 hr.
Source text: as §1, §2, §3, §4
A concentrated solution of sterile chlorophenol red was added to the MRS diluent as described in Example 2. […]

The subject of another test is Leuconostoc. The class given is cell-based, Leuconostoc mesenteroides. Particulars: 30 C.
Source text: as §1, §2, §3, §4, §5, §6

Another test concerns Weissella. It counts as cell-based, Weissella viridescens. The following applies: 30 C.
Source text: as §1, §2, §3, §4, §5, §6

The subject of test [2] is L. lactis subspecies lactis. The test can be described thus: Colony appearance on thin film culture devices containing pH indicators (MRS/Letheen diluent). It counts as cell-based, Lactococcus lactis subspecies lactis. The following applies: indicator 0.5 mM. From the text:
(§7) The aliquot were separately filter-sterilized.

Another test relates to L. mesenteroides. The test is described as above. It counts as cell-based, Leuconostoc mesenteroides. The following applies: indicator 0.5 mM.
Source text: as §7

Test [3] concerns Lactobacillus brevis. The test can be described thus: Detection of lactic acid bacteria with Nystatin on Plate I. It counts as cell-based. Particulars: 500 U/mL Nystatin, 28 degrees Celsius, 48-144 hr, 99.9% CO2. The method, then: (§8) Overnight cultures of Lactobacillus brevis, Pediococcus damnosus and 5 strains of Saccharomyces cerevisiae were grown in MRS broth (bacteria cultures) or yeast peptone dextrose (YPD) broth (yeast cultures). These cultures were serially diluted, yielding suspensions that contained approximately 100 cfu/mL of the organisms. A second series of suspensions were prepared and 500 U/mL Nystatin (CAS No. 1400-61-9 from Sigma) were added to the suspensions. A stock solution was prepared by adding Nystatin solids to 100% ethanol to make a solution of 25,000 U/mL which was then added to the bacteria/yeast suspensions to obtain the desired Nystatin concentration. One milliliter of each of the different solutions was then inoculated onto Plate I. The inoculated plates were incubated at 28 degrees Celsius for 48-144 hr in a 99.9% CO2 incubator.

The next test relates to Pediococcus damnosus. Described as above. The class given is cell-based. Particulars: 500 U/mL Nystatin, 28 degrees Celsius, 48-144 hr, 99.9% CO2. Here is the method:
as §8

Test [4] relates to Saccharomyces cerevisiae. The description is as above. The class given is cell-based. Particulars: 500 U/mL Nystatin, 28 degrees Celsius, 48-144 hr, 99.9% CO2. Here is the method:
as §8

Test [5] deals with Lactobacillus brevis. The test can be described thus: Colony growth with cycloheximide on Plate I. The following applies: with cycloheximide 100 ppm, 28° C., 48 hr, 99.9% carbon dioxide. It counts as cell-based. The method, then:
(§9) Overnight cultures of Lactobacillus brevis in MRS broth and Saccharomyces cerevisiae in yeast peptone dextrose (YPD) broth were prepared as described in Example 7. The cultures were serially diluted to obtain suspensions, each containing approximately 100 cfu/ml of the individual species (either L. brevis or S. cerevisiae). A third suspension was prepared containing 100 cfu/mL total of both species. A second set of 3 suspensions was prepared in the same manner (only L. brevis, only S. cerevisiae, and both organisms) except that each final solution also contained 100 ppm (10 mg/mL) cycloheximide ((CAS No. 66-81-9), sold under the tradename Actidione and obtained from Sigma (Fluka). The cycloheximide was added by using a stock solution of cycloheximide prepared by dissolving 100 ppm of cycloheximide to Butterfield's Buffer and sterile filtering the solution through a 0.2 μm filter. The stock solution was added to the diluent buffer.
(§10) One milliliter of each of the bacterial suspensions was used to inoculate Plate I. The plates were incubated at 28° C. for 48 hr in an incubator having an environment of 99.9% carbon dioxide. Growth indicates the presence of colonies.

The test system of test [6] is Saccharomyces cerevisiae. The experiment in a line: Colony growth with cycloheximide on Plate I. It counts as cell-based. The method, then:
as §9, with “A second set of 3 suspensions was prepared in the same manner (only L. brevis, only S. cerevisiae, and both organisms) except that each final solution also contained 100 ppm (10 mg/mL) cycloheximide ((CAS No. 66-81-9), sold under the tradename Actidione and obtained from Sigma (Fluka).” left out
as §10

Test [7] concerns Lactobacillus brevis and Saccharomyces. The test can be described thus: Colony growth with cycloheximide on Plate I. It counts as cell-based, Lactobacillus brevis and Saccharomyces cerevisiae. The method, then:
as §9, with “A second set of 3 suspensions was prepared in the same manner (only L. brevis, only S. cerevisiae, and both organisms) except that each final solution also contained 100 ppm (10 mg/mL) cycloheximide ((CAS No. 66-81-9), sold under the tradename Actidione and obtained from Sigma (Fluka).” left out
as §10

[8] abbreviates: Example 1, indicator 0.02 g/l or 0.04 g/l, buffer addition None, 25 C, 18-24 hr.
[9] abbreviates: Example 1, indicator 0.02 g/l or 0.04 g/l, buffer addition None, 25 C, 40-72 hr.
The mark [10] stands for this setting: Example 2, indicator 0.21 g/l, buffer addition None, 18-24 hr.
Where [11] appears, read: Example 2, indicator 0.21 g/l, buffer addition None, 40-72 hr.
The mark [12] stands for this setting: Example 3, indicator 0.21 g/l, buffer addition 28 mM, 18-24 hr.
Where [13] appears, read: Example 3, indicator 0.21 g/l, buffer addition 28 mM, 40-72 hr.
Where [14] appears, read: with cycloheximide 100 ppm, 28° C., 48 hr, 99.9% carbon dioxide.

With `Cc1cc(C2(c3cc(C)c(O)c(Br)c3)OS(=O)(=O)c3ccccc32)cc(Br)c1O` [Bromcresol Purple, Bromcresol purple], the Observations entry in test [1] (setting [8]) is “L. lactis subspecies lactis: Colonies with acid zones. No gas bubbles”; in [1] (setting [9]), “L. lactis subspecies lactis: Colonies with acid zones. No gas bubbles”; in the test with S. oralis, “S. oralis: Acid zones. No visible colonies or gas bubbles”; with Leuconostoc (setting [9]), “Leuconostoc: Acid zones. No visible colonies or gas bubbles”; in the test on Weissella (setting [8]) it was “Weissella: Acid zones without visible colonies. No gas bubbles”; in the test on Weissella (setting [9]), “Weissella: Acid zones and gas bubbles. Pale colonies”.

With `Cc1c(C2(c3cc(Br)c(O)c(Br)c3C)OS(=O)(=O)c3ccccc32)cc(Br)c(O)c1Br` [Bromocresol Green, Bromocresol Green sodium salt], the “24-hour Results” value is “Pale yellow zones” in test [2] (32° C.); “Colonies, yellow zones” in the test on L. mesenteroides (25° C.); “Colonies, yellow zones” in the test on L. mesenteroides (32° C.).

For the compound `O=C1C(Br)=CC(=C(c2cc(Br)c(O)c(Br)c2)c2ccccc2S(=O)(=O)[O-])C=C1Br.[Na+]` [Bromphenol Blue, Bromphenol Blue sodium salt], the “48-hour Results” value in test [2] (25° C.) is recorded as “Pale colonies”; in test [2] (32° C.) it was “pale colonies”; in the test with L. mesenteroides (32° C.), “Pale colonies, gas bubbles”. Besides, the “72-hour Results” value is “Colonies, gas” in test [2] (25° C.); “Colonies, gas” in test [2] (32° C.); “Pale colonies, gas bubbles” in the test on L. mesenteroides (32° C.).

`O=S1(=O)OC(c2ccc(O)c(Cl)c2)(c2ccc(O)c(Cl)c2)c2ccccc21` [Chlorophenol Red, Chlorophenol red]: the Observations result in [1] (setting [10]) was “Acid zones were visible for all three microorganisms tested”; in test [1] (setting [11]), “L. lactis subspecies lactis: Colonies with acid zones and gas bubbles”; in [1] (setting [12]), “Acid zones visible with all three strains”; in test [1] (setting [13]) it was “L. lactis subspecies lactis: Colonies with acid zones and gas bubbles”; in the test with Leuconostoc (setting [10]) it was “Acid zones were visible for all three microorganisms tested”; in the test on Leuconostoc (setting [11]) it was “Leuconostoc: Acid zones and gas bubbles. No visible colonies”. The Observations result was “Acid zones visible with all three strains” with Leuconostoc (setting [12]); “Leuconostoc: Acid zones. No visible colonies” with Leuconostoc (setting [13]); “Acid zones were visible for all three microorganisms tested” with Weissella (setting [10]); “Weissella: Colonies with acid zones and gas bubbles” in the test on Weissella (setting [11]); “Acid zones visible with all three strains” in the test on Weissella (setting [12]); “Weissella: Colonies with acid zones and gas bubbles” with Weissella (setting [13]). Also, the “24-hour Results” value in test [2] (32° C.) is listed as “Colonies; yellow zones”; in the test on L. mesenteroides (32° C.), “Yellow zones”. For the same compound, the “48-hour Results” value in test [2] (32° C.) is on record as “Colonies; yellow zones”; with L. mesenteroides (32° C.), “Yellow zones, gas”.

For the compound `C[C@@H]1[C@H](O)[C@@H](C)/C=C/C=C/CC/C=C/C=C/C=C/C=C/C(O[C@H]2O[C@H](C)[C@@H](O)[C@H](N)[C@@H]2O)CC2O[C@](O)(CC(O)C(O)CCC(O)CC(O)CC(O)CC(=O)O[C@H]1C)CC(O)C2C(=O)O` (stereo partly drawn) [Nystatin], the colony growth entry with Lactobacillus brevis [3] was “grew whether Nystatin was present or not”; in the test with Pediococcus damnosus, “grew whether Nystatin was present or not”; with Saccharomyces cerevisiae [4], “grew only on the plates that did not contain Nystatin”.

As to `C[C@@H]1C[C@@H]([C@H](O)CC2CC(=O)NC(=O)C2)C(=O)[C@@H](C)C1` [cycloheximide], the “Observation (colony growth)” value in the test on Lactobacillus brevis [5] was “Growth - 1 distinct colony morphology”; with Saccharomyces cerevisiae [6] (setting [14]), “No growth”; in test [7] (setting [14]) it was “Growth - 1 distinct colony morphology”. Also, the growth result with Saccharomyces cerevisiae [6] (cycloheximide 5, 10, 40 and 100 ppm, only S. cerevisiae) is “no growth”. The colony morphology entry in [7] (cycloheximide 5, 10, 40 and 100 ppm) was “one distinct colony morphology”.
